Laboratory results reported in patent US5470837A, “5'-vinylhalo-aristeromycin/adenosine analogs and immunosuppressants” (Merrell Dow Pharmaceuticals Inc., priority 1994, dated 1995).

Experiments:
[1] = tested on: anti-ovalbumin IgG; assay: In vivo immune response to T-dependent antigen (ovalbumin): serum anti-ovalbumin IgG by ELISA; design: species or system mice; conditions: for Anti-Ovalbumin Titer ± S.D.: ten days after immunization, dilution giving absorbance 0.750 at 405 nm
Procedure: In vivo immune response: Mice were radomly distributed by weight into 3 groups of ten. Dosing i.p. with Dulbecco's phosphate buffered saline (PBS) or (Z)-4',5'-didehydro-5'-deoxy-5'-fluoroadenosine (at 5 or 10 mg/Kg) dissolved in PBS was begun one day prior to immunization. Ovalbumin (Sigma, St. Louis, Mo.) at 2 mg/mL in PBS was emulsified in an equal volume of Freunds complete adjuvant and 50 μL, containing 50 μg ovalbumin, was injected into each footpad. Animals were dosed daily. Ten days after the immunization, the animals were bled for serum and sacrificed. Serum levels of anti-ovalbumin IgG were quantitated in an ELISA. Specifically, 100 μL of a 1% ovalbumin solution in Tris-bufferedsaline (TBS) (20 mM Tris, 500 mM NaCl, pH 7.5) was added to individual wells of a 96 well ELISA microtiter plate. The plate was incubated for 2 hours at room temperature and the wells were washed 3 times with TBS containing 0.05% Tween 20 (TBS-Tween). Dilutions of the serum samples in TBS-Tween (100 μL) were added to the wells, which were then incubated for one hour at room temperature. The plate was again washed 3 times with TBS-Tween. The wells were then incubated with 100 μL of a 1:1000 dilution of rabbit anti-mouse IgG labled with horse radish peroxidase (Bio-Rad, Richmond, Calif.) for one hour at room temperature. After washing 3 times with TBS-Tween, the wells were incubated with 100 μL of Bio-Rad peroxidase substrate [2,2'-azino-di-(3-ethyl-benzthiazoline sulfonate) in cocodylic acid buffer and hydrogen peroxide]. Absorbance at 405 nm was measured and the antibody titer was calculated from the linear regression curve of each serum sample and is reported as the log of the dilution which gave an absorbance reading of 0.750, unless otherwise indicated.

[2] = tested on: human peripheral blood mononuclear cells; assay: Mitogenic assay: pokeweed mitogen stimulated proliferation ([3H]-thymidine incorporation) of human peripheral blood mononuclear cells; format: cell-based
Procedure: Cells: Human peripheral blood mononuclear cells were isolated from samples of blood (in 0.01M sodium citrate) using 50 mL LEUKOPREP® separation tubes (Becton Dickenson, Lincoln Park, N.J.). Tubes were centrifuged at room temperature for 15 minutes at 2400 rpm in a swinging bucket rotor. The cells recovered at interface were washed in Dulbecco's PBS and resuspended in RPMI 1640 containing 10% FCS, 5×10^-5 M 2-mercaptoethanol, 2 mM L-glutamine, 1% penicillin-streptomycin and 1 mM HEPES buffer (CM). Mitogenic Assay: Human peripheral blood mononuclear cells (2×10^5) were incubated with pokeweed mitogen at a final concentration of 0.1 μg/mL or Concanavalin A at a final concentration of 1.0 μg/mL in 96 well flat-bottomed microtiter plates (Falcon 3072, Becton Dickinson). Compounds to be tested were added at the initiation of culture. The final volume was 0.2 mL. The cultures were incubated in 95% humidified air/5% CO2 at 37° C. for 2 days (Concanavalin A) or 6 days (Pokeweed mitogen). Eighteen hours before termination of the cultures, each well was pulsed with 1 μCi of [^3 H]-thymidine. Cells from individual wells were harvested onto glass fiber filter paper with an automated multi-sample harvester. Filters were placed in scintillation fluid (Universal Cocktail, ICN Radiochemicals, Irvin, Calif.) and the [^3 H]-thymidine incorporation, in counts per minute (cpm), was measured in a Packard Tri-carb 4640 Scintillation Counter. Peripheral blood mononuclear cells from three individuals were cultured with an optimal concentration of pokeweed mitogen, a T-dependent B-cell mitogen, in the presence of increasing concentrations of (Z)-4',5'-didehydro-5'-deoxy-5'-fluoroadenosine. […] Similar studies were performed culturing human peripheral blood cells with an optimal concentration of Concanavalin A, a potent T-cell mitogen.

[3] = tested on: human peripheral blood mononuclear cells; assay: Mitogenic assay: Concanavalin A stimulated proliferation ([3H]-thymidine incorporation) of human peripheral blood mononuclear cells; format: cell-based
Procedure: Cells: Human peripheral blood mononuclear cells were isolated from samples of blood (in 0.01M sodium citrate) using 50 mL LEUKOPREP® separation tubes (Becton Dickenson, Lincoln Park, N.J.). Tubes were centrifuged at room temperature for 15 minutes at 2400 rpm in a swinging bucket rotor. The cells recovered at interface were washed in Dulbecco's PBS and resuspended in RPMI 1640 containing 10% FCS, 5×10^-5 M 2-mercaptoethanol, 2 mM L-glutamine, 1% penicillin-streptomycin and 1 mM HEPES buffer (CM).
(§1) Mitogenic Assay: Human peripheral blood mononuclear cells (2×10^5) were incubated with pokeweed mitogen at a final concentration of 0.1 μg/mL or Concanavalin A at a final concentration of 1.0 μg/mL in 96 well flat-bottomed microtiter plates (Falcon 3072, Becton Dickinson). Compounds to be tested were added at the initiation of culture. The final volume was 0.2 mL. The cultures were incubated in 95% humidified air/5% CO2 at 37° C. for 2 days (Concanavalin A) or 6 days (Pokeweed mitogen). Eighteen hours before termination of the cultures, each well was pulsed with 1 μCi of [^3 H]-thymidine. Cells from individual wells were harvested onto glass fiber filter paper with an automated multi-sample harvester. Filters were placed in scintillation fluid (Universal Cocktail, ICN Radiochemicals, Irvin, Calif.) and the [^3 H]-thymidine incorporation, in counts per minute (cpm), was measured in a Packard Tri-carb 4640 Scintillation Counter.
Peripheral blood mononuclear cells from three individuals were cultured with an optimal concentration of pokeweed mitogen, a T-dependent B-cell mitogen, in the presence of increasing concentrations of (Z)-4',5'-didehydro-5'-deoxy-5'-fluoroadenosine. […] Similar studies were performed culturing human peripheral blood cells with an optimal concentration of Concanavalin A, a potent T-cell mitogen.

[4] = tested on: murine splenic mononuclear cells; assay: Mitogenic assay: Concanavalin A stimulated proliferation ([3H]-thymidine incorporation) of murine splenic mononuclear cells; format: cell-based, CD-1 mice
Description: Cells: Spleens and/or lymph nodes from a total of 16 individual outbred CD-1 mice (Charles River, Wilmington, Mass.) were asceptically removed, pooled, and single cell suspensions were made in Hank's Balanced Salt Solution (HBSS, calcium and magnesium free). Erythrocytes were lysed by treatment with Tris-buffered ammonium chloride (0.155M NH4 Cl, 0.0165M Tris, pH 7.2). Mononuclear cells were washed with HBSS and resuspended in Dulbecco's PBS and resuspended in RPMI 1640 containing 10% FCS, 5×10^-5 M 2mercaptoethanol, 2 mM L-glutamine, 1% penicillin-streptomycin and 1 mM HEPES buffer (CM).
as §1, with “Murine splenic” for “Human peripheral blood”, “(5×10^5)” for “(2×10^5)”, “with” for “with pokeweed mitogen at a final concentration of 0.1 μg/mL or”, “2.5” for “1.0”, “plates.” for “plates (Falcon 3072, Becton Dickinson).”, “days.” for “days (Concanavalin A) or 6 days (Pokeweed mitogen).”

SMILES: Nc1ncnc2c1ncn2[C@@H]1O/C(=C\F)[C@@H](O)[C@H]1O [Compound A, (Z)-4',5'-didehydro-5'-deoxy-5'-fluoroadenosine]
- Anti-Ovalbumin Titer ± S.D. ([1]; 5 mg/Kg i.p. daily): 550 ± 272
- Anti-Ovalbumin Titer ± S.D. ([1]; 10 mg/Kg i.p. daily): 375 ± 124
- serum levels of anti-ovalbumin IgG compared to Controls ([1]; 5 or 10 mg/Kg i.p. daily, in words): significantly reduced
- activity at 1 µM ([2]; Homo sapiens, PBMC, 144 h, 1.0 μM, pokeweed mitogen 0.1 μg/mL, 6 days, read-out: Proliferation (% of Control) Pokeweed mitogen): 50.9%
- activity at 10 µM ([2]; Homo sapiens, PBMC, 144 h, 10.0 μM, pokeweed mitogen 0.1 μg/mL, 6 days, read-out: Proliferation (% of Control) Pokeweed mitogen): 19.7%
- activity at 0.001 µM ([2]; Homo sapiens, PBMC, 144 h, .001 μM, pokeweed mitogen 0.1 μg/mL, 6 days, read-out: Proliferation (% of Control) Pokeweed mitogen): 97.4%
- activity at 0.01 µM ([2]; Homo sapiens, PBMC, 144 h, .01 μM, pokeweed mitogen 0.1 μg/mL, 6 days, read-out: Proliferation (% of Control) Pokeweed mitogen): 103%
- activity at 0.1 µM ([2]; Homo sapiens, PBMC, 144 h, .1 μM, pokeweed mitogen 0.1 μg/mL, 6 days, read-out: Proliferation (% of Control) Pokeweed mitogen): 72.1%
- inhibition of pokeweed stimulated proliferation, in words ([2]; increasing concentrations): dose dependent inhibition
- activity at 1 µM ([3]; Homo sapiens, PBMC, 48 h, 1.0 μM, Concanavalin A 1.0 μg/mL, 2 days, read-out: Proliferation (% of Control) Concanavalin A mitogen): 15.8%
- activity at 10 µM ([3]; Homo sapiens, PBMC, 48 h, 10.0 μM, Concanavalin A 1.0 μg/mL, 2 days, read-out: Proliferation (% of Control) Concanavalin A mitogen): 3.7%
- activity at 0.001 µM ([3]; Homo sapiens, PBMC, 48 h, .001 μM, Concanavalin A 1.0 μg/mL, 2 days, read-out: Proliferation (% of Control) Concanavalin A mitogen): 100%
- activity at 0.01 µM ([3]; Homo sapiens, PBMC, 48 h, .01 μM, Concanavalin A 1.0 μg/mL, 2 days, read-out: Proliferation (% of Control) Concanavalin A mitogen): 101%
- activity at 0.1 µM ([3]; Homo sapiens, PBMC, 48 h, .1 μM, Concanavalin A 1.0 μg/mL, 2 days, read-out: Proliferation (% of Control) Concanavalin A mitogen): 66.4%
- IC50 ([3]; PBMC, 48 h, human cells, Concanavalin A 1.0 μg/mL, 2 days, read-out: IC50, inhibition of Concanavalin A stimulated proliferation): 250 nM
- inhibition of Concanavalin A stimulated proliferation, in words ([3]; human cells, increasing concentrations): dose dependent inhibition
- activity at 1 µM ([4]; Mus musculus, 48 h, 1.0 μM, Concanavalin A 2.5 μg/mL, 2 days, read-out: Proliferation (% of Control) Concanavalin A mitogen): 28.6%
- activity at 10 µM ([4]; Mus musculus, 48 h, 10.0 μM, Concanavalin A 2.5 μg/mL, 2 days, read-out: Proliferation (% of Control) Concanavalin A mitogen): 17.9%
- activity at 0.001 µM ([4]; Mus musculus, 48 h, .001 μM, Concanavalin A 2.5 μg/mL, 2 days, read-out: Proliferation (% of Control) Concanavalin A mitogen): 96.3%
- activity at 0.01 µM ([4]; Mus musculus, 48 h, .01 μM, Concanavalin A 2.5 μg/mL, 2 days, read-out: Proliferation (% of Control) Concanavalin A mitogen): 86%
- activity at 0.1 µM ([4]; Mus musculus, 48 h, .1 μM, Concanavalin A 2.5 μg/mL, 2 days, read-out: Proliferation (% of Control) Concanavalin A mitogen): 51.8%
- IC50 ([4]; Mus musculus, 48 h, murine cells, Concanavalin A 2.5 μg/mL, 2 days, read-out: IC50, inhibition of Concanavalin A stimulated proliferation): 190 nM
- inhibition of Concanavalin A stimulated proliferation, in words ([4]; murine cells, increasing concentrations): dose dependent inhibition
